Test results taken from the supplement of paper PMC10307832.

Legend:
Assay in all cases: relative viability (nuclei count vs DMSO), 5 days (fraction); higher = more cells survive
[1] = compound: O=C(C[C@H]1NCCC[C@@H]1O)Cn1cnc2cc(Br)c(Cl)cc2c1=O (racemic) [Halofuginone] + CC1(C)CCC(c2ccc(Cl)cc2)=C(CN2CCN(c3ccc(C(=O)NS(=O)(=O)c4ccc(N[C@H](CCN5CCOCC5)CSc5ccccc5)c(S(=O)(=O)C(F)(F)F)c4)cc3)CC2)C1 [Navitoclax] (partner 0.5 µM)
Method in brief: (§1)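 For relative viability, nuclei counts in treated wells were divided by those in vehicle wells. Lung cancer cell lines had been pin-tool dosed in 1536-well plates the day after seeding and cultured for 5 days, then fixed and stained in one step (final 0.05% Triton X-100, 1% formaldehyde, 1 ug/ml Hoechst) and imaged at 4×. Doses were one drug alone or a fixed anchor-drug dose plus five library-drug doses (not always all listed) in √10 steps, and values are duplicate-plate medians.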

[2] = compound: O=C(C[C@H]1NCCC[C@@H]1O)Cn1cnc2cc(Br)c(Cl)cc2c1=O (racemic) [Halofuginone] + C[C@]1(O)C[C@@H](c2nc(-c3ccc4ccc(-c5ccccc5)nc4c3)c3c(N)nccn32)C1 [Linsitinib] (partner 1 µM)
Method in brief: as §1

[3] = compound: Nc1ncn([C@H]2C[C@H](O)[C@@H](CO)O2)c(=O)n1 [Decitabine] + CS(=O)(=O)CCNCc1ccc(-c2ccc3ncnc(Nc4ccc(OCc5cccc(F)c5)c(Cl)c4)c3c2)o1 [Lapatinib] (partner 2 µM)
Method in brief: as §1

[4] = compound: COc1cc2c(Oc3ccc4[nH]c(C)cc4c3F)ncnc2cc1OCCCN1CCCC1 [Cediranib] + C[C@@H](Oc1cc(-c2cnn(C3CCNCC3)c2)cnc1N)c1c(Cl)ccc(F)c1Cl [Crizotinib] (partner 1 µM)
Method in brief: as §1

Cell Line	relative viability ([1]; first compound 0.001 µM)	relative viability ([1]; first compound 0.003162 µM)	relative viability ([1]; first compound 0.01 µM)	relative viability ([1]; first compound 0.03162 µM)	relative viability ([1]; first compound 0.1 µM)	relative viability ([2]; first compound 0.001 µM)	relative viability ([2]; first compound 0.003162 µM)	relative viability ([2]; first compound 0.01 µM)	relative viability ([2]; first compound 0.03162 µM)	relative viability ([2]; first compound 0.1 µM)	relative viability ([3]; first compound 0.04 µM)	relative viability ([3]; first compound 0.1265 µM)	relative viability ([3]; first compound 0.4 µM)	relative viability ([3]; first compound 1.265 µM)	relative viability ([3]; first compound 4 µM)	relative viability ([4]; first compound 0.04 µM)	relative viability ([4]; first compound 0.4 µM)	relative viability ([4]; first compound 1.265 µM)	relative viability ([4]; first compound 4 µM)	relative viability ([4]; first compound 0.1265 µM)
LCLC-97TM1	0.501	0.476	0.363	0.327	0.212	0.209	0.189	0.187	0.179	0.163	0.576	0.335	0.173	0.169	0.126	0.272	0.352	0.47	0.363	
LK-2	0.78	0.979	0.81	0.931	0.603	0.722	0.656	0.433	0.609	0.452	0.784	0.991	0.75	0.521	0.402	0.19	0.247	0.25	0.257	0.222
LOU-NH91	0.746	0.705	0.719	0.719	0.536	0.97	0.977	0.97	0.977	0.842	0.764	0.712	0.649	0.689	0.661	0.739	0.713	0.727	0.653	0.767
LU99A	0.794	0.73	0.763	0.706	0.665	0.634	0.477	0.522	0.515	0.45	1.01	1.08	1.19	0.866	0.683	0.639	0.59	0.547	0.649	
LXF-289	0.94	0.965	0.859	0.973	0.865	0.938	1.05	0.877	0.954	0.923	0.809	0.733	0.484	0.402	0.354	0.831	0.782	0.838	0.804	0.727
NCI-H23	0.893	0.966	0.795	0.798	0.377	0.656	0.573	0.556	0.692	0.211	0.777	0.795	0.237	0.235	0.22	0.472	0.557	0.518	0.597	
NCI-H322M	1.2	1.26	1.26	1.24	1.19	0.919	1.02	0.907	1.04	0.926	0.682	0.629	0.609	0.434	0.421	0.894	0.887	0.904	0.945	1.05
NCI-H460	1.2	1.3	1.12	0.232	0.0111	0.696	0.833	0.78	0.404	0.0417	0.902	1.06	0.277	0.18	0.114	0.867	0.815	0.889	0.935	0.906
NCI-H520	1.18	1.05	1.03	0.835	0.346	0.997	0.85	0.994	0.667	0.422	0.798	0.965	0.499	0.359	0.267	0.93	0.665	0.801	0.598	
NCI-H596	0.911	0.912	0.997	1	0.606	1.13	1.04	1.07	1.12	0.732	1.12	1.06	0.576	0.954	0.783	0.934	0.988	0.954	1.09	1.09
NCI-H647	1.15	1.09	1.13	0.829	0.415	1.35	1.06	1.03	0.665	0.173	0.756	0.77	0.537	0.271	0.194	1.24	0.86	1.1	1.18	1.03
NCI-H727	0.481	0.316	0.397	0.355	0.22	0.324	0.427	0.415	0.243	0.132	0.709	0.659	0.483	0.447	0.433	0.927	0.876	0.671	0.736	0.758
NCI-H838	1.17	1.24	0.994	0.954	0.208	1.03	0.857	0.94	0.549	0.127	0.566	0.549	0.226	0.307	0.205	0.798	0.817	0.811	0.748	0.898
NCI-H1299	1.1	1.05	1.05	1.02	0.964	1.01	1.23	0.972	0.955	0.732	0.972	0.989	0.953	0.918	0.855	0.982	0.957	0.92	0.929	0.945
NCI-H1355	0.929	0.949	0.902	1.08	0.715	0.825	0.819	0.832	0.822	0.61	0.884	0.592	0.444	0.286	0.279	1.1	1.08	0.992	1.31	0.977
NCI-H1437	1.09	1.13	1.06	0.976	0.436	1.05	1.13	0.988	0.828	0.208	0.505	0.582	0.274	0.235	0.221	0.966	0.823	0.892	0.879	0.87
